According to US10717946B2, “Water soluble essential oils and their use” (KIMBERLY-CLARK WORLDWIDE, INC., priority 2012, dated 2020):
Where two headings read alike, the source gives them in different places.

Tested on: C. albicans SC5314
Type: cell-based, Candida albicans
Protocol: Based on the results in FIG. 3, single cell suspensions of SC5314 was prepared as follows. Stock culture of C. albicans SC5314 was streaked onto YPD agar (YPDA) and incubated at 30° C. overnight. Single colonies were subcultured in YPD broth (YPDB) and incubated at 30° C., 200 rpm overnight. Overnight culture in YPDB was subcultured in YPD broth again and incubated at 30° C., 200 rpm 48 h. Cells were collected by centrifugation (4000 g 10 min) at 4° C., washed three times with sterile water, and then resuspended in sterile water at a final concentration of 10^9 colony-forming unit/ml (cfu/ml). The suspension was stored at 4° C. at least 1 d, then subcultured into YPDB to a final concentration of 10^6 cfu/ml. After 48 h incubation, cell suspension was examined under the microscope for single cell percentage. When the single cell percentage exceeded 80%, cells were collected and washed three times with water, then resuspended in water to a final concentration of 10^9 cfu/ml, and stored at 4° C. for no more than a month.
Two approaches were taken to determine the percentage of cells with germ tubes formed (GTF %). One way was to count the total cells at the start of incubation, and count the ungerminated cells after incubation, then calculate the GTF % as (1−ungerminated cells/total cells at 0 h)*100. Another way was to store the samples at 15° C. for 20 h after incubation, then count the germinated cells and total cells after disaggregation, then calculated the GTF % as (germinated cells/total cells after storage)*100. […] Therefore, for practical purposes, the GTF % was determined by the first method, that is, GTF %=(1−ungerminated cells/total cells at 0 h)*100, for the in vitro screening discussed herein.
A screening medium, containing 11 mM imidazole buffer, 3 m MMgSO4, and 2.6 mM N-acetyl-D-glucosamine (GlcNAc) has been used to study the effect of farnesol analogs on the germ tube formation of C. albicans. Here, the germ tube formation of C. albicans in modified screening media was assessed with various concentrations of imidazole buffer (10 mM, 30 mM, and 50 mM) and MgSO4 (0.5 mM, 1.5 mM, and 3 mM). […] It took 2 h to 3 h for the GTF % to reach above 80%. For practical purposes, the screening medium, containing 11 mM imidazole buffer, 0.5 m MMgSO4, and 2.6 mM N-acetyl-D-glucosamine (GlcNAc) was adopted for in vitro screening the quorum sensing inhibitory effect of farnesol compounds and botanicals. […]

For CC(C)=CCCC(C)=CCCC(C)=CCO [farnesol], the “GTF %control-GTF %sample (mean ± SD, n = 3)” value ((0.0022%)) was 25.0 ± 4.1%.

Cc1ccc(C(C)C)c(O)c1 [Thymol] was tested, and the “GTF % (mean ± SEM, n = 3)” value (1 mM) was 43.7 ± 5.2%.

For C=CCCCCCCCC [1-Decene], the “GTF %control-GTF %sample (mean ± SD, n = 3)” value (0.1%) was 0% and the “GTF %control-GTF %sample (mean ± SD, n = 3)” value (0.2%) was 35.2 ± 5.2 %.
